The target in the assay is T1, PAF specific receptor binding site on rabbit platelet plasma membranes (Oryctolagus cuniculus, UniProt G1TEI7).
T1 construct: from tissue; host or cells: rabbit platelets (plasma membrane suspension)
Description: Inhibition of 3H-PAF binding to rabbit platelet plasma membranes. Here is the method: In vitro, they inhibit PAF-induced functions in both the cellular and tissue levels by disturbing the PAF binding to its specific receptor site. The ability of a compound of formula (I) to inhibit the PAF binding to its specific receptor binding site on rabbit platelet plasma membranes was measured by an assay recently developed by us.
The inhibition of H^3 -PAF binding to the rabbit platelet plasma membrane by a PAF-antagonist of Formula (I) was determined by a method employing isotropic labeling and filtration techniques. Generally, a series of Tris-buffered solutions of the selected antagonist at predetermined concentrations were prepared. Each of these solutions contains 1 pmole of ^3 H-PAF, a known amount of the test antagonist, and a sufficient amount of the pH 7.5 Tris-buffer solution (10 mM Tris, 0.25% bovine serum albumin, and 150 mM NaCl per ml water) to make the final volume of 1 ml. After adding into a set of test tubes each with 100 μg of the platelet plasma membrane suspension (S. B. Hwang, et al., Biochemistry, 22, 4756 (1983)) and one of the Tris-buffer solutions described above, the resulting mixture in each test tube was incubated at 0° C. for about one hour or until the reaction was complete. Two control samples, one of which (C1) contains all the ingredients described above except the antagonist and the other (C2) contains C1 plus a 1000-fold excess of unlabeled PAF, were also prepared and incubated simultaneously with the test samples. After the incubation was completed, the contents of each test tube were filtered under vacuo through a Whatman GF/C fiberglass filter and the residue washed rapidly several times with a total of 20 ml cold (0°-5° C.) Tris-buffer solution. Each washed residue was then suspended in 10 ml scintillation solution (Aquasol 2, New England Nuclear, Connecticut) and the radioactivity was counted in a Packard Tri-Carb 460CD Liquid Scintillation System. Defining the counts from a test sample as "Total binding with antagonist"; the counts from the control sample C1, as "Total binding C1 "; and the counts from the control sample C2 as "non-specific binding C2 ", the percent inhibition of each test antagonist can be determined by the following equation: [formula]

Setting [1] is: Table 1, E (trans), dose 5 μM, read-out: % Inhibition of PAF Binding.
Where [2] appears, read: Table II, Z (cis), dose 5 μM, read-out: % Inhibition of PAF Receptor.
The mark [3] stands for this setting: Table II, Z (cis), read-out: % Inhibition of PAF Receptor.
The mark [4] stands for this setting: Table 1, E (trans), read-out: % Inhibition of PAF Binding.

Broadly, the inhibition is the relative decrease from the control value, in per cent.

Values joined by “and” are separate entries in the source; they are usually repeats but may differ in a detail not shown here. Equal entries are not always repeated. Where two headings read alike, the source gives them in different places.

T1 sequence (G1TEI7 1-342): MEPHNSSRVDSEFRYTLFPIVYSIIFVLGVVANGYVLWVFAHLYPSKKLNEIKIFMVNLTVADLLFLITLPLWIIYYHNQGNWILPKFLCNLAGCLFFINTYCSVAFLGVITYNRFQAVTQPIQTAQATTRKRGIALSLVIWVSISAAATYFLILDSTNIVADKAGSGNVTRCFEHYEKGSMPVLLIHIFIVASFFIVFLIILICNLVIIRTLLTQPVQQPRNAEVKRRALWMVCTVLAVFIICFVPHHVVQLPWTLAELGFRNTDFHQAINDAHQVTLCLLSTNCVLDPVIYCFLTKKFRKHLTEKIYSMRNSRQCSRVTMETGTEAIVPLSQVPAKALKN

Consider `COc1ccc2c(c1)C(CCSc1ccccc1)=C(C)/C2=C\c1ccc(S(N)(=O)=O)cc1` [E CH2CH2SC6H5 / SO2NH2 / OCH3, E 1-(4-aminosulfonylphenyl)methylene-5-methoxy-2-methyl-1H-3-indenyl-(2-phenylthio)ethane], for which the inhibition at 5 µM under setting [1] is 56%.
On to `COc1ccc2c(c1)C(CC(=O)O)=C(C)/C2=C/c1ccc(S(N)(=O)=O)cc1` [Z CH2COOH / SO2NH2 / OCH3, 1-(4-aminosulfonylphenyl)methylene-5-methoxy-2-methyl-1H-3-indenylacetic acid], for which the inhibition at 5 µM under setting [2] is 32%. For the setting “Table II, Z (cis)”, this compound came in with an inhibition at 20 µM of 57% and an inhibition at 50 µM of 94%.
In turn, `COC(=O)CC1=C(C)/C(=C/c2ccc(NS(C)(=O)=O)cc2)c2ccc(OC)cc21` [Z CH2COOCH3 / NHSO2CH3 / OCH3, Z methyl 1-(4-(N-mesylaminophenyl))methylene-5-methoxy-2-methyl-1H-3-indenylacetate] displayed an inhibition at 3 µM (Table II, Z (cis)) of 35%. Moreover, the inhibition at 10 µM under setting [3] is 72%.
In the case of `CC(=O)NCCC1=C(C)/C(=C/c2ccc([S+](C)[O-])cc2)c2ccc(F)cc21` (stereo not shown) [Z CH2CH2NHCOCH3 / SOCH3 / F, Z 1-(4-methylsulfinylphenyl)methylene-5-fluoro-2-methyl-1H-3-indenyl-(2-acetamido)ethane], under setting [2], the inhibition at 5 µM amounted to 39%.
Still for that read-out and setting: next, `COc1ccc2c(c1)C(CCSc1ccccc1)=C(C)/C2=C/c1ccc(S(N)(=O)=O)cc1` [Z CH2CH2SC6H5 / SO2NH2 / OCH3, Z 1-(4-aminosulfonylphenyl)methylene-5-methoxy-2-methyl-1H-3-indenyl-(2-phenylthio)ethane]: 33%.
For `CC(=O)NCCC1=C(C)/C(=C/c2ccc(S(C)(=O)=O)cc2)c2ccc(F)cc21` [Z CH2CH2NHCOCH3 / SO2CH3 / F, Z 1-(4-methylsulfonylphenyl)methylene-5-fluoro-2-methyl-1H-3-indenyl-(2-acetamido)ethane], the “% Inhibition of PAF Receptor” value (Table II, Z (cis), dose 5 μM) was 68% and 90%.
Regarding `COCCC1=C(C)/C(=C/c2ccc(S(N)(=O)=O)cc2)c2ccc(F)cc21` [Z CH2CH2OCH3 / SO2NH2 / F, Z 1-(4-aminosulfonylphenyl)methylene-5-fluoro-2-methyl-1H-3-indenyl-(2-methoxy)ethane], for the setting “read-out: % Inhibition of PAF Receptor”, the inhibition at 5 µM came out at 29%.
As to `COc1ccc2c(c1)C(CCO)=C(C)/C2=C\c1ccc(S(N)(=O)=O)cc1` [E CH2CH2OH / SO2NH2 / OCH3, E 1-(4-aminosulfonyl)methylene-5-methoxy-2-methyl-1H-3-indenyl-(2-hydroxy)ethane], under setting [4], the inhibition at 1 µM was determined as 59%.
`COC(=O)CC1=C(C)/C(=C\c2ccc(S(N)(=O)=O)cc2)c2ccc(F)cc21` [E CH2COOCH3 / SO2NH2 / F, E-Methyl 1-(4-aminosulfonylphenyl)methylene-5-fluoro-2-methyl-1H-3-indenylacetate]: under setting [4], the inhibition at 1 µM was found to be 60%.
As to `CCOc1ccc2c(c1)C(CC(=O)O)=C(C)/C2=C/c1ccc([S+](C)[O-])cc1` (stereo not shown) [Z CH2COOH / SOCH3 / OC2H5], under setting [2], the inhibition at 5 µM turned out to be 42%.
For `COCCC1=C(C)/C(=C\c2ccc(S(N)(=O)=O)cc2)c2ccc(F)cc21` [E CH2CH2OCH3 / SO2NH2 / F, E 1-(4-aminosulfonylphenyl)methylene-5-fluoro-2-methyl-1H-3-indenyl-(2-methoxy)ethane], the inhibition at 5 µM (read-out: % Inhibition of PAF Binding) is 61%.
As for `COC(=O)CC1=C(C)/C(=C/c2ccc(S(N)(=O)=O)cc2)c2ccc(OC)cc21` [Z CH2COOCH3 / SO2NH2 / OCH3, Z methyl 1-(4-aminosulfonylphenyl)methylene-5-methoxy-2-methyl-1H-3-indenylacetate], under setting [3], the inhibition at 1 µM was 39% and the inhibition at 10 µM stood at 75%. Where the note is “Table II, Z (cis)”, the inhibition at 3 µM is 58%, the inhibition at 20 µM turned out to be 100% and the inhibition at 50 µM was determined as 100%. The inhibition at 5 µM under setting [2] was found to be 66%.
With `COc1ccc2c(c1)C(CCn1ccnc1)=C(C)/C2=C/c1ccc(S(N)(=O)=O)cc1` [Z drawing 18 / SO2NH2 / OCH3, Z 1-(4-aminosulfonylphenyl)methylene-5-methoxy-2-methyl-1H-3-indenyl-[2-(N-imidazolyl)]ethane], the inhibition at 5 µM under setting [2] was determined as 68%.
`COc1ccc2c(c1)C(CC[S+](C)[O-])=C(C)/C2=C\c1ccc(S(N)(=O)=O)cc1` (stereo not shown) [E CH2CH2SOCH3 / SO2NH2 / OCH3, E 1-(4-aminosulfonylphenyl)methylene-5-methoxy-2-methyl-1H-3-indenyl-(2-methylsulfinyl)ethane]: under setting [4], the inhibition at 0.5 µM came out at 24%. Further, the inhibition at 5 µM under setting [1] is 74%.
Consider `CNS(=O)(=O)c1ccc(/C=C2\C(C)=C(CC(=O)OC)c3cc(F)ccc32)cc1` [E CH2COOCH3 / SO2NHCH3 / F, E Methyl 1-[4-(N-methylaminosulfonyl)phenyl]-methylene-5-fluoro-2-methyl-1H-3-indenylacetate], for which the inhibition at 1 µM under setting [4] was 56%.
Regarding `CSc1ccc(/C=C2/C(C)=C(CCNC(C)=O)c3cc(F)ccc32)cc1` [Z CH2CH2NHCOCH3 / SCH3 / F], the inhibition at 5 µM under setting [2] is 50%.
For the compound `COc1ccc2c(c1)C(CC(=O)O)=C(C)/C2=C\c1ccc(S(N)(=O)=O)cc1` [E CH2COOH / SO2NH2 / OCH3, 1-(4-aminosulfonylphenyl)methylene-5-methoxy-2-methyl-1H-3-indenyl acetic acid], the inhibition at 5 µM under setting [1] was 4%.
With `COc1ccc2c(c1)C(CC[S+](C)[O-])=C(C)/C2=C/c1ccc(S(N)(=O)=O)cc1` (stereo not shown) [Z CH2CH2SOCH3 / SO2NH2 / OCH3, Z 1-(4-aminosulfonylphenyl)methylene-5-methoxy-2-methyl-1H-3-indenyl-(2-methylsulfinyl)ethane], the inhibition at 5 µM under setting [2] is 56%.
Regarding `COC(=O)CC1=C(C)/C(=C\c2ccc([S+](C)[O-])cc2)c2ccc(F)cc21` (stereo not shown) [E CH2COOCH3 / SOCH3 / F], the inhibition at 5 µM under setting [1] was found to be 45%.
Consider `COc1ccc2c(c1)C(CCn1ccnc1)=C(C)/C2=C\c1ccc(S(N)(=O)=O)cc1` [E drawing 16 / SO2NH2 / OCH3], for which the inhibition at 0.1 µM (Table 1, E (trans), dose 0.1 μM, read-out: % Inhibition of PAF Binding) was 17%. Under setting [4], the inhibition at 0.5 µM came out at 31% and the inhibition at 1 µM worked out at 45%. The inhibition at 5 µM under setting [1] was 90%.
For the compound `CNS(=O)(=O)c1ccc(/C=C2\C(C)=C(CC(=O)OC)c3cc(OC)ccc32)cc1` [E CH2COOCH3 / SO2NHCH3 / OCH3, E Methyl 1-(4-(N-methylaminosulfonyl)phenyl)methylene-5-methoxy-2-methyl-1H-3-indenylacetate], the inhibition at 0.5 µM under setting [4] came to 67%. Also, under setting [1], the inhibition at 5 µM was 100%.
For `COC(=O)CC1=C(C)/C(=C\c2ccc(OC)c(OC)c2)c2ccc(OC)cc21` [E CH2COOCH3 / 3,4-dimethoxy / OCH3, E methyl 1-(3,4-dimethoxyphenyl)methylene-5-methoxy-2-methyl-1H-3-indenylacetate], under setting [4], the inhibition at 1 µM worked out at 45% and the inhibition at 10 µM was determined as 87%.
For the compound `COC(=O)CC1=C(C)/C(=C/c2ccc(S(=O)(=O)NC(=N)N)cc2)c2ccc(OC)cc21` [Z CH2COOCH3 / SONHC(NH)NH2 / OCH3], the inhibition at 1 µM under setting [3] worked out at 50%.

Values taken from patent US4656190A, “Indene derivatives and their use as PAF-antagonists” (Merck & Co., Inc., priority 1983, dated 1987).
